Measured values taken from PMC8998978, “Toward a Treatment of Cancer: Design and In Vitro/In Vivo Evaluation of Uncharged Pyrazoline Derivatives as a Series of Novel SHP2 Inhibitors” (International Journal of Molecular Sciences, 2022).

How the values were obtained:
SHP2 = details: cited from earlier work
[1] = biological target: T1, recombinant human SHP2 protein (Homo sapiens, UniProt Q06124); assay: SHP2 inhibition assay (pNPP substrate); assay type: biochemical; details: pNPP 4 mM, SHP2 240 nM, 37 °C, 30 min; means ± SD
T1 sequence (Q06124 1-593): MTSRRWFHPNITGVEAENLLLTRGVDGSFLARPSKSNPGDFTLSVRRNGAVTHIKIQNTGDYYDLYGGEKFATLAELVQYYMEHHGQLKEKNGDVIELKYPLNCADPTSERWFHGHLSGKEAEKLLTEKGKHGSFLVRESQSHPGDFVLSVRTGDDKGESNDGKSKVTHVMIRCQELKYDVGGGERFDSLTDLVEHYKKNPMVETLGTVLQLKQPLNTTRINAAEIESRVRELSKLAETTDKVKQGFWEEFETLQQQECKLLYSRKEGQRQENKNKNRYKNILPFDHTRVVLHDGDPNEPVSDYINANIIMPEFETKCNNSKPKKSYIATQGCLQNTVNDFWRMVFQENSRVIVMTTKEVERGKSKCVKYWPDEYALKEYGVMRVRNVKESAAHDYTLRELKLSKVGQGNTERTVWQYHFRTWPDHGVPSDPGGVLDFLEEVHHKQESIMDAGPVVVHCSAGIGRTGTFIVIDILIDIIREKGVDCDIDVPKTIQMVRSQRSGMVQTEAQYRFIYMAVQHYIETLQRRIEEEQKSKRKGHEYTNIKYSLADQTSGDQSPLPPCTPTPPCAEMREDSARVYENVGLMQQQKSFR
Protocol: pGEX-4T1 SHP2 WT (plasmid #8322) was purchased from Addgene. […] Then, 0.2 mM IPTG (Sangon Biotech, Shanghai, China) was added to induce the expression of protein at 30 °C for 4 h followed by centrifugation and cells collection. Cells were then broken by ultrasound in lysis buffer (20 mM Tris–HCl (pH 8.0), 100 mM KCl, 10% glycerol, 1 mM DTT, 0.5% Triton X-100) on ice. The supernatant was collected by centrifugation at 10,000× g for 15 min at 4 °C. The BeaverBeads GSH (Beaver Biosciences Inc., Guangzhou, China) washed by lysis buffer were incubated with the supernatant for 2 h at 4 °C. […] Then, the experiment was performed in a final volume of 100 μL containing 10 mM Tris–HCl (pH 7.5), 25 mM NaCl, 1 mM EDTA and 4 mM pNPP in a 96-well plate at 37 °C for 30 min. The amount of product p-nitrophenol was determined by the absorbance at 405 nm in a multimode reader (Berthold Technologies GmbH & Co.KG, Bad Wildbad, Baden Württemberg, Germany). The IC50 value was calculated by GraphPad Prism 7.0 software (GraphPad Inc, San Diego, CA, USA).

HCT116 cells xenograft = assay: Anti-tumor activity in vivo, HCT116 xenograft model; design: species or system BALB/c-nude mice; details: 13 days
Protocol: Male BALB/c-nude mice (Jinan Pengyue Experimental Animal Breeding Co., Ltd., Jinan, China), 5 weeks of age, were used. The mice were housed in a specific pathogen-free room with temperature controlled (22 ± 2 °C), humidity (55 ± 10%) and a light/dark cycle of 12 h, providing sterile food and water. The HCT116 cells xenograft model was conducted, and 1 × 10^7 HCT116 cells were subcutaneously injected into the right armpit of mice. The tumor volume of mice was measured every three days to evaluate the tumor growth. When the tumor volume reached about 100 mm^3, the mice were randomly divided into four groups (n = 6), and treated with vehicle (0.5% CMC-Na solution) or 4o (25, 50 mg/kg) by gavage once a day for 13 consecutive days. A total of 25 mg/kg 5-FU was used as a positive control. The body weight of mice was measured every three days. The length (L) and width (W) of tumors were measured by electronic caliper every three days. The volume (V) was calculated as follows: V = (L × W^2)/2. When the tumor volume reached about 1000 mm^3, the tumors were excised. Immunohistochemical analysis were used to evaluate the related protein levels.

| IC50 [1] [µM] | Molecule | also measured |
| --- | --- | --- |
| 5.97 ± 0.88 | NC(=S)N1N=C(c2ccc(Oc3ccccc3)cc2)CC1c1ccc(O)c(O)c1 (stereo not drawn) [Compound 4g, 5-(3,4-dihydroxyphenyl)-3-(4-phenoxyphenyl)-4,5-dihydro-1H-pyrazole-1-carbothioamide] | – |
| 4.94 ± 0.79 | CC(C)(C)c1ccc(Oc2ccc(C3=NN(C4=NC(=O)CS4)C(c4ccc(O)c(O)c4)C3)cc2)cc1 (stereo not drawn) [Compound 4m, 2-(3-(4-(4-(tert-butyl)phenoxy)phenyl)-5-(3,4-dihydroxyphenyl)-4,5-dihydro-1H-pyrazol-1-yl)thiazol-4(5H)-one] | – |
| 4.98 ± 0.77 | O=C1CSC(N2N=C(c3ccc(Oc4ccccc4)cc3)CC2c2ccc(O)c(O)c2)=N1 (stereo not drawn) [Compound 4k, 2-(5-(3,4-dihydroxyphenyl)-3-(4-phenoxyphenyl)-4,5-dihydro-1H-pyrazol-1-yl)thiazol-4(5H)-one] | – |
| 18.5 ± 2.32 | O=C1CSC(N2N=C(c3ccc(Br)cc3)CC2c2ccc(O)c(O)c2)=N1 (stereo not drawn) [Compound 4n, 2-(3-(4-bromophenyl)-5-(3,4-dihydroxyphenyl)-4,5-dihydro-1H-pyrazol-1-yl)thiazol-4(5H)-one] | – |
| 11.4 ± 1.56 | COc1ccc(C2=NN(C3=NC(=O)CS3)C(c3ccc(O)c(O)c3)C2)cc1 (stereo not drawn) [Compound 4j, 2-(5-(3,4-dihydroxyphenyl)-3-(4-methoxyphenyl)-4,5-dihydro-1H-pyrazol-1-yl)thiazol-4(5H)-one] | – |
| 8.44 ± 2.03 | CC(C)(C)c1ccc(Oc2ccc(C3=NN(C(N)=S)C(c4ccc(O)c(O)c4)C3)cc2)cc1 (stereo not drawn) [Compound 4h, 3-(4-(4-(tert-butyl)phenoxy)phenyl)-5-(3,4-dihydroxyphenyl)-4,5-dihydro-1H-pyrazole-1-carbothioamide] | – |
| 4.36 ± 0.65 | CCOc1ccc(Oc2ccc(C3=NN(C4=NC(=O)CS4)C(c4ccc(O)c(O)c4)C3)cc2)cc1 (stereo not drawn) [Compound 4l, 2-(5-(3,4-dihydroxyphenyl)-3-(4-(4-ethoxyphenoxy)phenyl)-4,5-dihydro-1H-pyrazol-1-yl)thiazol-4(5H)-one] | – |
| 20.4 ± 2.45 | NC(=S)N1N=C(c2ccc(Br)cc2)CC1c1ccc(O)c(O)c1 (stereo not drawn) [Compound 4i, 3-(4-bromophenyl)-5-(3,4-dihydroxyphenyl)-4,5-dihydro-1H-pyrazole-1-carbothioamide] | – |

Continued, molecule first:

| Molecule | IC50 [1] [µM] | also measured |
| --- | --- | --- |
| Tautomycetin | – | IC50 (SHP2): 2.9 µM |
| COc1ccc(C2=NN(C(N)=S)C(c3ccc(O)c(O)c3)C2)cc1 (stereo not drawn) [Compound 4f, 5-(3,4-dihydroxyphenyl)-3-(4-methoxyphenyl)-4,5-dihydro-1H-pyrazole-1-carbothioamide] | 13.2 ± 1.89 | – |
| CCOc1ccc(Oc2ccc(C3=NN(C(N)=S)C(c4ccc(O)c(O)c4)C3)cc2)cc1 (stereo not drawn) [Compound 4e, 5-(3,4-dihydroxyphenyl)-3-(4-(4-ethoxyphenoxy)phenyl)-4,5-dihydro-1H-pyrazole-1-carbothioamide] | 5.96 ± 0.92 | – |
| CCC(=O)N1N=C(c2ccc(Oc3ccccc3)cc2)CC1c1ccc(O)c(O)c1 (stereo not drawn) [Compound 4c, 1-(5-(3,4-dihydroxyphenyl)-3-(4-phenoxyphenyl)-4,5-dihydro-1H-pyrazol-1-yl)propan-1-one] | 34.2 ± 5.9 | – |
| CC(C)(C)c1ccc(Oc2ccc(C3=NN(C=O)C(c4ccc(O)c(O)c4)C3)cc2)cc1 (stereo not drawn) [Compound 4b, 3-(4-(4-(tert-butyl)phenoxy)phenyl)-5-(3,4-dihydroxyphenyl)-4,5-dihydro-1H-pyrazole-1-carbaldehyde] | 13.7 ± 1.98 | – |
| O=c1[nH]cc(F)c(=O)[nH]1 [Compound 5-FU, 5-fluorouracil, reference compound] | – | Effect on body weight of tumor-bearing mice (HCT116 cells xenograft; 4o 25, 50 mg/kg or 5-FU 25 mg/kg): showed a decrease; Tumor inhibition rate (HCT116 cells xenograft; 5-FU 25 mg/kg, positive drug): 54.8% |
| NC(=O)C(c1ccccc1)S(=O)(=O)O (stereo not drawn) [Sulfophenyl acetic amide] | – | IC50 (SHP2): 1.5 µM |
| CCCC(=O)N1N=C(c2ccc(Oc3ccccc3)cc2)CC1c1ccc(O)c(O)c1 (stereo not drawn) [Compound 4d, 1-(5-(3,4-dihydroxyphenyl)-3-(4-phenoxyphenyl)-4,5-dihydro-1H-pyrazol-1-yl)butan-1-one] | 9.51 ± 2.01 | – |
| CCOc1ccc(Oc2ccc(C3=NN(C=O)C(c4ccc(O)c(O)c4)C3)cc2)cc1 (stereo not drawn) [Compound 4a, 5-(3,4-dihydroxyphenyl)-3-(4-(4-ethoxyphenoxy)phenyl)-4,5-dihydro-1H-pyrazole-1-carbaldehyde] | 13.3 ± 2.11 | – |
